Source: publication PMC9532703, “A novel small molecule RK-019 inhibits FGFR2-amplification gastric cancer cell proliferation and induces apoptosis in vitro and in vivo” (Frontiers in Pharmacology, 2022)

Key:
Test in all cases: Kinase selectivity panel
Type in all cases: biochemical
NEK6(h) = target: T1, NEK6(h) (Homo sapiens, UniProt Q9HC98); settings: read-out: Inhibition(%) @ 1 µM RK-019
T1 construct: purchased Eurofins Discovery Services (KinaseProfiler)
Outline: (§1)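 Read-out is percent inhibition from an ATP-site competition binding assay, compound at 1 µM, recombinant human kinases.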

LKB1(h) = target: T2, LKB1(h) (Homo sapiens, UniProt Q15831); settings: read-out: Inhibition(%) @ 1 µM RK-019
T2 construct: purchased Eurofins Discovery Services (KinaseProfiler)
Outline: as §1

TAK1(h) = target: T3, TAK1(h) (Homo sapiens, UniProt O43318); settings: read-out: Inhibition(%) @ 1 µM RK-019
T3 construct: purchased Eurofins Discovery Services (KinaseProfiler)
Outline: as §1

SRMS(h) = target: T4, SRMS(h) (Homo sapiens, UniProt Q9H3Y6); settings: read-out: Inhibition(%) @ 1 µM RK-019
T4 construct: purchased Eurofins Discovery Services (KinaseProfiler)
Outline: as §1

CaMKK2(h) = target: T5, CaMKK2(h) (Homo sapiens, UniProt Q96RR4); settings: read-out: Inhibition(%) @ 1 µM RK-019
T5 construct: purchased Eurofins Discovery Services (KinaseProfiler)
Outline: as §1

MLK3(h) = target: T6, MLK3(h) (Homo sapiens, UniProt Q16584); settings: read-out: Inhibition(%) @ 1 µM RK-019
T6 construct: purchased Eurofins Discovery Services (KinaseProfiler)
Outline: as §1

PKCδ(h) = target: T7, PKCδ(h) (Homo sapiens, UniProt Q05655); settings: read-out: Inhibition(%) @ 1 µM RK-019
T7 construct: purchased Eurofins Discovery Services (KinaseProfiler)
Outline: as §1

EGFR(T790M,L858R)(h) = target: T8, EGFR(T790M,L858R)(h) (Homo sapiens, UniProt P00533, L858R/T790M); settings: read-out: Inhibition(%) @ 1 µM RK-019
T8 construct: purchased Eurofins Discovery Services (KinaseProfiler)
Outline: as §1

ATR/ATRIP(h) = target: T9, ATR/ATRIP(h) (Homo sapiens, UniProt Q13535); settings: read-out: Inhibition(%) @ 1 µM RK-019
T9 construct: purchased Eurofins Discovery Services (KinaseProfiler)
Outline: as §1

RIPK1(h) = target: T10, RIPK1(h) (Homo sapiens, UniProt Q13546); settings: read-out: Inhibition(%) @ 1 µM RK-019
T10 construct: purchased Eurofins Discovery Services (KinaseProfiler)
Outline: as §1

SGK2(h) = target: T11, SGK2(h) (Homo sapiens, UniProt Q9HBY8); settings: read-out: Inhibition(%) @ 1 µM RK-019
T11 construct: purchased Eurofins Discovery Services (KinaseProfiler)
T11 sequence (Q9HBY8 whole entry): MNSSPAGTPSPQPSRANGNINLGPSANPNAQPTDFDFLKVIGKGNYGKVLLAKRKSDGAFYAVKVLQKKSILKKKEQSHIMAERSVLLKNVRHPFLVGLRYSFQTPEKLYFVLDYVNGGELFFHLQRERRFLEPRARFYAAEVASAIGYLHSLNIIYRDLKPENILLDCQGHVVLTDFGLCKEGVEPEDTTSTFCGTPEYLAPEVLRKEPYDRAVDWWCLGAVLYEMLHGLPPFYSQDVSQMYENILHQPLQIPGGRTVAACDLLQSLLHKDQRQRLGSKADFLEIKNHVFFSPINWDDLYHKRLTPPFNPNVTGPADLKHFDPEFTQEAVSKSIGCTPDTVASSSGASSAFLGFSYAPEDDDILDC
Outline: as §1

eEF-2K(h) = target: T12, eEF-2K(h) (Homo sapiens, UniProt O00418); settings: read-out: Inhibition(%) @ 1 µM RK-019
T12 construct: purchased Eurofins Discovery Services (KinaseProfiler)
Outline: as §1

ULK2(h) = target: T13, ULK2(h) (Homo sapiens, UniProt Q8IYT8); settings: read-out: Inhibition(%) @ 1 µM RK-019
T13 construct: purchased Eurofins Discovery Services (KinaseProfiler)
T13 sequence (Q8IYT8 whole entry): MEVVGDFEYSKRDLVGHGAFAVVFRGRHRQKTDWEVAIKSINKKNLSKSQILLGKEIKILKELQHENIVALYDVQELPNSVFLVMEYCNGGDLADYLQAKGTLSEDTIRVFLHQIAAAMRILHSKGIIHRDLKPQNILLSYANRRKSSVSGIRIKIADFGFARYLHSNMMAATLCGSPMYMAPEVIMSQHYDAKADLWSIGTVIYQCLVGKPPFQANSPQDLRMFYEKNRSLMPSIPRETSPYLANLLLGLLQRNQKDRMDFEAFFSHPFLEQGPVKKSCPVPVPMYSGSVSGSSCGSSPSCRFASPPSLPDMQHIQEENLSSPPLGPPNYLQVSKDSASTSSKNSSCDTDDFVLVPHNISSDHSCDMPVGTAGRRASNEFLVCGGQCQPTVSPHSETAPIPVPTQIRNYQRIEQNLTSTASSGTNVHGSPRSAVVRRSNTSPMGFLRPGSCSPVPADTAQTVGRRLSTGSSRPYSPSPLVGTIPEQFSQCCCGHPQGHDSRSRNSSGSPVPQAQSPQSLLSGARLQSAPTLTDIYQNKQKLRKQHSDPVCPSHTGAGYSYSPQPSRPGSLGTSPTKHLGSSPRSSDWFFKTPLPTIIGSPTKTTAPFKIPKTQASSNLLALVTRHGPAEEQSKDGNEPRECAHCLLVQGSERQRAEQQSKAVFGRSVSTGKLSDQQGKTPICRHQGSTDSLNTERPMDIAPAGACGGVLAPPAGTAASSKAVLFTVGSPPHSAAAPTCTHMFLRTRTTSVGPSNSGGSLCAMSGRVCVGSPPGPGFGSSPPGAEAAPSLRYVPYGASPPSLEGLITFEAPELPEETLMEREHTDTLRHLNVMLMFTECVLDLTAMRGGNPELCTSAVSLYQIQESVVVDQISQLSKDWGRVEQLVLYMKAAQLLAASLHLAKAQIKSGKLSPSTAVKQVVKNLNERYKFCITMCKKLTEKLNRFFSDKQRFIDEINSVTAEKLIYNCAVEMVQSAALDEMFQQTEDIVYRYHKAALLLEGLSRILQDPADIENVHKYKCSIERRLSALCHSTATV
Outline: as §1

A-Raf(h) = target: T14, A-Raf(h) (Homo sapiens, UniProt P10398); settings: read-out: Inhibition(%) @ 1 µM RK-019
T14 construct: purchased Eurofins Discovery Services (KinaseProfiler)
Outline: as §1

cKit(D816V)(h) = target: T15, cKit(D816V)(h) (Homo sapiens, UniProt P10721, D816V); settings: read-out: Inhibition(%) @ 1 µM RK-019
T15 construct: purchased Eurofins Discovery Services (KinaseProfiler)
Outline: as §1

PAK1(h) = target: T16, PAK1(h) (Homo sapiens, UniProt Q13153); settings: read-out: Inhibition(%) @ 1 µM RK-019
T16 construct: purchased Eurofins Discovery Services (KinaseProfiler)
Outline: as §1

Axl(h) = target: T17, Axl(h) (Homo sapiens, UniProt P30530); settings: read-out: Inhibition(%) @ 1 µM RK-019
T17 construct: purchased Eurofins Discovery Services (KinaseProfiler)
Outline: as §1

CLIK1(h) = target: T18, CLIK1(h) (Homo sapiens, UniProt Q8TDR2); settings: read-out: Inhibition(%) @ 1 µM RK-019
T18 construct: purchased Eurofins Discovery Services (KinaseProfiler)
T18 sequence (Q8TDR2 whole entry): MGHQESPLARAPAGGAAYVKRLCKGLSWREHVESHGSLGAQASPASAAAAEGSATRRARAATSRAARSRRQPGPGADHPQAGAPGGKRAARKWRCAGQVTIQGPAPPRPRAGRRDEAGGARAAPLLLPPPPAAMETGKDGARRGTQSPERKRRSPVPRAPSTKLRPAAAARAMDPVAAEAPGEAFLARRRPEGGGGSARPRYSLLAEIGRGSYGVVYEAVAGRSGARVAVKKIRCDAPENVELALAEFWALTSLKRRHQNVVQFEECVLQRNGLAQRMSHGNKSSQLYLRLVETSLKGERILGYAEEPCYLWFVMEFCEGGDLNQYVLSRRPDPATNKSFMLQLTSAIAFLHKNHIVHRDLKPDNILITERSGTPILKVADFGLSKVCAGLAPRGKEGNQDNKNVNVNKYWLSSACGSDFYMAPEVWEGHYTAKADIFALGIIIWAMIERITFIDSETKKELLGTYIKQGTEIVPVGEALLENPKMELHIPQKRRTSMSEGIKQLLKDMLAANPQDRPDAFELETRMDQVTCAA
Outline: as §1

PDK1(h) = target: T19, PDK1(h) (Homo sapiens, UniProt O15530); settings: read-out: Inhibition(%) @ 1 µM RK-019
T19 construct: purchased Eurofins Discovery Services (KinaseProfiler)
Outline: as §1

Ret(h) = target: T20, Ret(h) (Homo sapiens, UniProt P07949)
T20 construct: purchased Eurofins Discovery Services (KinaseProfiler)
T20 sequence (P07949 29-1114): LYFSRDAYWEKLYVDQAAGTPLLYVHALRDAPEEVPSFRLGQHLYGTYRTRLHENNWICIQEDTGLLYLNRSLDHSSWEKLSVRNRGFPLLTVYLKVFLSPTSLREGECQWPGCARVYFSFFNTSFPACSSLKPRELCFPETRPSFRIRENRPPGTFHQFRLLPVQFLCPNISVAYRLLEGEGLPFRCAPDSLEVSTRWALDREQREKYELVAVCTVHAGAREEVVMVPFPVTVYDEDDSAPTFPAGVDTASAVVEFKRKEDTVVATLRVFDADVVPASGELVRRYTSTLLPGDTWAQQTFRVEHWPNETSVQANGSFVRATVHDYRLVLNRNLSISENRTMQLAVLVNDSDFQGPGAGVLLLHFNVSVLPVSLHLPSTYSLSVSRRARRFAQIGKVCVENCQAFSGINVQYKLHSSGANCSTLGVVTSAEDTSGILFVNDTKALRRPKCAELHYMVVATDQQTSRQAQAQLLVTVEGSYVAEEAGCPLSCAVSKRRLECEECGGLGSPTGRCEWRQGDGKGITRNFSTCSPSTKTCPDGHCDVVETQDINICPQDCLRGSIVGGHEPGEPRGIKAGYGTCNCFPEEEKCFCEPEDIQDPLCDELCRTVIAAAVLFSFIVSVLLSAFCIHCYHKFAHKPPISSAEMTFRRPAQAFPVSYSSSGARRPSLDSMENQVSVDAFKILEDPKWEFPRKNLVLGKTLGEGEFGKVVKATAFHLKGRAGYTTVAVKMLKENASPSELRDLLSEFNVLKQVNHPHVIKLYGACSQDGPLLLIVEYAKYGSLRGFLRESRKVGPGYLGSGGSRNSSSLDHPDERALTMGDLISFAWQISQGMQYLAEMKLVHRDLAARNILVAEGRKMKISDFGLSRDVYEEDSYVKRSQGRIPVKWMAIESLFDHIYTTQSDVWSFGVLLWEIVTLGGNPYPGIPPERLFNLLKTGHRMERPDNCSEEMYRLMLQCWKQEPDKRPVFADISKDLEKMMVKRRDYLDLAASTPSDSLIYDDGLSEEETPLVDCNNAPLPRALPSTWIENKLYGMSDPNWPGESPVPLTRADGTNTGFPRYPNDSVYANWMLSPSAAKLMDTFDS
Outline: as §1

Ron(h) = target: T21, Ron(h) (Homo sapiens, UniProt Q04912); settings: read-out: Inhibition(%) @ 1 µM RK-019
T21 construct: purchased Eurofins Discovery Services (KinaseProfiler)
T21 sequence (Q04912 25-1400): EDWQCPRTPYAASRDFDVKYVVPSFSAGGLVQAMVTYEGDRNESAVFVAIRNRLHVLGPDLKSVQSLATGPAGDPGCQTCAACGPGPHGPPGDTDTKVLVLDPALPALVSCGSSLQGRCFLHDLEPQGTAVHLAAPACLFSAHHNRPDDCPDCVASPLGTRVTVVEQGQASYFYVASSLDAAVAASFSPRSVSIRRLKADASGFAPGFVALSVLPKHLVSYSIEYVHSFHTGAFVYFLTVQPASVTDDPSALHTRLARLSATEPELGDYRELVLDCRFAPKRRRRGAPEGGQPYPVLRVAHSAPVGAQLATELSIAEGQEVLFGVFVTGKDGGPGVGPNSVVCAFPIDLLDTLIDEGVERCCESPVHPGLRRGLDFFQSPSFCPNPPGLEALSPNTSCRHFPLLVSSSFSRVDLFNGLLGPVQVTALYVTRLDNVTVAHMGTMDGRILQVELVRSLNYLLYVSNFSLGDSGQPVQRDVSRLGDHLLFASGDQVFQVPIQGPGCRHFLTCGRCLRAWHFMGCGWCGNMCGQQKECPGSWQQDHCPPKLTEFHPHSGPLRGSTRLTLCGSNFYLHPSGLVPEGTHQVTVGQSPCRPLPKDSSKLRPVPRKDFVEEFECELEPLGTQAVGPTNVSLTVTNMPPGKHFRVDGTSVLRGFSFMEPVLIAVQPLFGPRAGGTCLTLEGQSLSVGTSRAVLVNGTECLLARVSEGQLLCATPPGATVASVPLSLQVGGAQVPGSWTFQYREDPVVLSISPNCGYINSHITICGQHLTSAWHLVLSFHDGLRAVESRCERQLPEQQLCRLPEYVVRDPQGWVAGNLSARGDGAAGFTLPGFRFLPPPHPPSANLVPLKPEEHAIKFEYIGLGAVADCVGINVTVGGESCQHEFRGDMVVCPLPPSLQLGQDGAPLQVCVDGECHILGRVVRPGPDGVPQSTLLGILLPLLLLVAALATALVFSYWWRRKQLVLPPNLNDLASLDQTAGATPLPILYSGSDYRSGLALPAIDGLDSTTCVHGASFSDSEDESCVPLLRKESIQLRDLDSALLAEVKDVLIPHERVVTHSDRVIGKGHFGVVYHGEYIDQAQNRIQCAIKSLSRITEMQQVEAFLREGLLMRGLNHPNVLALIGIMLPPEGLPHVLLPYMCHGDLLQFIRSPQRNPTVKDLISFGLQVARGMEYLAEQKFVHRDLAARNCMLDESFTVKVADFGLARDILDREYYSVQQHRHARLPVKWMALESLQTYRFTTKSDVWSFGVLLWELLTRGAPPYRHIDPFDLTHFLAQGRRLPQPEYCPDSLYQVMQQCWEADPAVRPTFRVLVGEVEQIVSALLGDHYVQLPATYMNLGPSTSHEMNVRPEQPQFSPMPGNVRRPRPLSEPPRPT
Outline: as §1

Tie2(Y897S)(h) = target: T22, Tie2(Y897S)(h) (Homo sapiens, UniProt Q02763, Y897S); settings: read-out: Inhibition(%) @ 1 µM RK-019
T22 construct: purchased Eurofins Discovery Services (KinaseProfiler)
Outline: as §1

MST3(h) = target: T23, MST3(h) (Homo sapiens, UniProt Q9Y6E0); settings: read-out: Inhibition(%) @ 1 µM RK-019
T23 construct: purchased Eurofins Discovery Services (KinaseProfiler)
Outline: as §1

LIMK2(h) = target: T24, LIMK2(h) (Homo sapiens, UniProt P53671); settings: read-out: Inhibition(%) @ 1 µM RK-019
T24 construct: purchased Eurofins Discovery Services (KinaseProfiler)
Outline: as §1

BrSK1(h) = target: T25, BrSK1(h) (Homo sapiens, UniProt Q8TDC3); settings: read-out: Inhibition(%) @ 1 µM RK-019
T25 construct: purchased Eurofins Discovery Services (KinaseProfiler)
Outline: as §1

PRP4(h) = target: T26, PRP4(h) (Homo sapiens, UniProt Q13523); settings: read-out: Inhibition(%) @ 1 µM RK-019
T26 construct: purchased Eurofins Discovery Services (KinaseProfiler)
Outline: as §1

DDR1(h) = target: T27, DDR1(h) (Homo sapiens, UniProt Q08345); settings: read-out: Inhibition(%) @ 1 µM RK-019
T27 construct: purchased Eurofins Discovery Services (KinaseProfiler)
Outline: as §1

TSSK4(h) = target: T28, TSSK4(h) (Homo sapiens, UniProt Q6SA08); settings: read-out: Inhibition(%) @ 1 µM RK-019
T28 construct: purchased Eurofins Discovery Services (KinaseProfiler)
Outline: as §1

PKD3(h) = target: T29, PKD3(h) (Homo sapiens, UniProt O94806); settings: read-out: Inhibition(%) @ 1 µM RK-019
T29 construct: purchased Eurofins Discovery Services (KinaseProfiler)
Outline: as §1

Bmx(h) = target: T30, Bmx(h) (Homo sapiens, UniProt P51813); settings: read-out: Inhibition(%) @ 1 µM RK-019
T30 construct: purchased Eurofins Discovery Services (KinaseProfiler)
Outline: as §1

MEKK3(h) = target: T31, MEKK3(h) (Homo sapiens, UniProt Q99759); settings: read-out: Inhibition(%) @ 1 µM RK-019
T31 construct: purchased Eurofins Discovery Services (KinaseProfiler)
Outline: as §1

SIK3(h) = target: T32, SIK3(h) (Homo sapiens, UniProt Q9Y2K2); settings: read-out: Inhibition(%) @ 1 µM RK-019
T32 construct: purchased Eurofins Discovery Services (KinaseProfiler)
Outline: as §1

EphA3(h) = target: T33, EphA3(h) (Homo sapiens, UniProt P29320); settings: read-out: Inhibition(%) @ 1 µM RK-019
T33 construct: purchased Eurofins Discovery Services (KinaseProfiler)
Outline: as §1

RIPK2(h) = target: T34, RIPK2(h) (Homo sapiens, UniProt O43353); settings: read-out: Inhibition(%) @ 1 µM RK-019
T34 construct: purchased Eurofins Discovery Services (KinaseProfiler)
T34 sequence (O43353 whole entry): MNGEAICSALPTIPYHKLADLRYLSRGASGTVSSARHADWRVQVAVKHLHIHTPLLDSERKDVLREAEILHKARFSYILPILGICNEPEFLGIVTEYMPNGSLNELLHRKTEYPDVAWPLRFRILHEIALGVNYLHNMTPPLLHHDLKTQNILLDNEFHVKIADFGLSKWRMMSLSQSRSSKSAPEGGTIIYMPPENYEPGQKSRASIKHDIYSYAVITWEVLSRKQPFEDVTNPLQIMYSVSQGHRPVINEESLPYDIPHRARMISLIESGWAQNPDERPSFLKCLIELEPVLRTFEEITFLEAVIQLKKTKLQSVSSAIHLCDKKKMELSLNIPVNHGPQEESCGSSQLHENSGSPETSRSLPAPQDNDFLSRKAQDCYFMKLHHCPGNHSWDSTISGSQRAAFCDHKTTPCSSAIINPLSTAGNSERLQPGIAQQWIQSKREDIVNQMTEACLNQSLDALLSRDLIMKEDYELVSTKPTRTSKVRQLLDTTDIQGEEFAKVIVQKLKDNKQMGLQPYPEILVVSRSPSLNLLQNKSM
Outline: as §1

CDKL1(h) = target: T35, CDKL1(h) (Homo sapiens, UniProt Q00532); settings: read-out: Inhibition(%) @ 1 µM RK-019
T35 construct: purchased Eurofins Discovery Services (KinaseProfiler)
Outline: as §1

MRCKβ(h) = target: T36, MRCKβ(h) (Homo sapiens, UniProt Q9Y5S2); settings: read-out: Inhibition(%) @ 1 µM RK-019
T36 construct: purchased Eurofins Discovery Services (KinaseProfiler)
Outline: as §1

TNIK(h) = target: T37, TNIK(h) (Homo sapiens, UniProt Q9UKE5); settings: read-out: Inhibition(%) @ 1 µM RK-019
T37 construct: purchased Eurofins Discovery Services (KinaseProfiler)
Outline: as §1

COc1cc(OC)cc(N(CCN[C@H](C)CO)c2ccc3ncc(-c4cnn(C)c4)c(=O)n3c2)c1 [RK-019, (R)-7-((3,5-dimethoxyphenyl) (2-((1-hydroxypropan-2-yl)amino)ethyl)amino)-3-(1-methyl-1H-pyrazol-4-yl)-4H-pyrido [1,2-a]pyrimidin-4-one]
activity at 1 µM (NEK6(h)): 97% | activity at 1 µM (LKB1(h)): 94% | activity at 1 µM (TAK1(h)): 102% | activity at 1 µM (SRMS(h)): 123% | activity at 1 µM (CaMKK2(h)): 95% | activity at 1 µM (MLK3(h)): 98% | activity at 1 µM (PKCδ(h)): 99% | activity at 1 µM (EGFR(T790M,L858R)(h)): 92% | activity at 1 µM (ATR/ATRIP(h)): 107% | activity at 1 µM (RIPK1(h)): 85% | activity at 1 µM (SGK2(h)): 79% | activity at 1 µM (eEF-2K(h)): 97% | activity at 1 µM (ULK2(h)): 107% | activity at 1 µM (A-Raf(h)): 133% | activity at 1 µM (cKit(D816V)(h)): 93% | activity at 1 µM (PAK1(h)): 102% | activity at 1 µM (Axl(h)): 116% | activity at 1 µM (CLIK1(h)): 102% | activity at 1 µM (PDK1(h)): 110% | inhibition at 1 µM (Ret(h); RET, 1 µM, read-out: inhibition (hit in panel)): > 90% | activity at 1 µM (Ret(h); Ret(h), read-out: Inhibition(%) @ 1 µM RK-019): 5% | activity at 1 µM (Ron(h)): 124% | activity at 1 µM (Tie2(Y897S)(h)): 77% | activity at 1 µM (MST3(h)): 122% | activity at 1 µM (LIMK2(h)): 98% | activity at 1 µM (BrSK1(h)): 106% | activity at 1 µM (PRP4(h)): 90% | activity at 1 µM (DDR1(h)): 19% | activity at 1 µM (TSSK4(h)): 106% | activity at 1 µM (PKD3(h)): 99% | activity at 1 µM (Bmx(h)): 64% | activity at 1 µM (MEKK3(h)): 103% | activity at 1 µM (SIK3(h)): 104% | activity at 1 µM (EphA3(h)): 60% | activity at 1 µM (RIPK2(h)): 46% | activity at 1 µM (CDKL1(h)): 97% | activity at 1 µM (MRCKβ(h)): 108% | activity at 1 µM (TNIK(h)): 42%
